In patent US7235574B2, “Pentafluorosulfanyl compounds” (Hoffmann-La Roche Inc., priority 2004, dated 2007):

Assays:
[1] = target: T1, HER2 (Homo sapiens, UniProt P04626); experiment: Inhibition of HER2 Phosphorylation in Calu3 Tumor Cell Line; type: cell-based; conditions: Calu3 cells; for percentage of inhibition of HER2 phosphorylation compared with the reference compound: comparison with reference compound (Example 4, p. 88, WO 01/77107); for inhibition at 1 µM: Calu-3, read-out: Percent inhibition of HER2-phosphorylation
T1 construct: endogenous in cells; host or cells: Calu3 tumor cell line
Protocol: Inhibition of HER2 Phosphorylation in Calu3 Tumor Cell Line
2×10^5 Calu3 cells per well were plated in a 12-well plate. After 4 days cells were starved for 16 h in DMEM (Dulbecco's Modified Eagle Medium)/0.5% FCS/1% glutamine. During this time cells were incubated with […] of a compound according to this invention. Afterwards cells were lysed in lyses buffer containing 1% Triton, 10% glycerol, 1 mM EGTA, 1.5 mM MgCl2, 150 mM NaCl, 50 mM Hepes pH 7.5, 1 mM PMSF, 10 μg/mL aprotinin and […] orthovanadate. Cell lysates were analyzed on a SDS PAGE and after transfer to a nitrocellulose membrane detected with a rabbit antibody specifically recognizing the pY 1248 in HER2 (Cell Signaling). After incubation with an anti rabbit antibody coupled to POD (Peroxidase from Biorad, Munich, Germany) signals were detected by chemiluminescence (ECL, Amersham). Inhibition of HER2 phosphorylation is calculated as percentage of the DMSO treated control. This percentage is calculated according to the following formula: Inhibition in %=100−(Phosphorylated-HER2-Signal of Test Sample*100/Phosphorylated-HER2-Signal DMSO-control).

[2] = compound concentration 1 μM, 16 h incubation, pY 1248 in HER2, percentage of the DMSO treated control

T1 sequence (P04626 23-1255): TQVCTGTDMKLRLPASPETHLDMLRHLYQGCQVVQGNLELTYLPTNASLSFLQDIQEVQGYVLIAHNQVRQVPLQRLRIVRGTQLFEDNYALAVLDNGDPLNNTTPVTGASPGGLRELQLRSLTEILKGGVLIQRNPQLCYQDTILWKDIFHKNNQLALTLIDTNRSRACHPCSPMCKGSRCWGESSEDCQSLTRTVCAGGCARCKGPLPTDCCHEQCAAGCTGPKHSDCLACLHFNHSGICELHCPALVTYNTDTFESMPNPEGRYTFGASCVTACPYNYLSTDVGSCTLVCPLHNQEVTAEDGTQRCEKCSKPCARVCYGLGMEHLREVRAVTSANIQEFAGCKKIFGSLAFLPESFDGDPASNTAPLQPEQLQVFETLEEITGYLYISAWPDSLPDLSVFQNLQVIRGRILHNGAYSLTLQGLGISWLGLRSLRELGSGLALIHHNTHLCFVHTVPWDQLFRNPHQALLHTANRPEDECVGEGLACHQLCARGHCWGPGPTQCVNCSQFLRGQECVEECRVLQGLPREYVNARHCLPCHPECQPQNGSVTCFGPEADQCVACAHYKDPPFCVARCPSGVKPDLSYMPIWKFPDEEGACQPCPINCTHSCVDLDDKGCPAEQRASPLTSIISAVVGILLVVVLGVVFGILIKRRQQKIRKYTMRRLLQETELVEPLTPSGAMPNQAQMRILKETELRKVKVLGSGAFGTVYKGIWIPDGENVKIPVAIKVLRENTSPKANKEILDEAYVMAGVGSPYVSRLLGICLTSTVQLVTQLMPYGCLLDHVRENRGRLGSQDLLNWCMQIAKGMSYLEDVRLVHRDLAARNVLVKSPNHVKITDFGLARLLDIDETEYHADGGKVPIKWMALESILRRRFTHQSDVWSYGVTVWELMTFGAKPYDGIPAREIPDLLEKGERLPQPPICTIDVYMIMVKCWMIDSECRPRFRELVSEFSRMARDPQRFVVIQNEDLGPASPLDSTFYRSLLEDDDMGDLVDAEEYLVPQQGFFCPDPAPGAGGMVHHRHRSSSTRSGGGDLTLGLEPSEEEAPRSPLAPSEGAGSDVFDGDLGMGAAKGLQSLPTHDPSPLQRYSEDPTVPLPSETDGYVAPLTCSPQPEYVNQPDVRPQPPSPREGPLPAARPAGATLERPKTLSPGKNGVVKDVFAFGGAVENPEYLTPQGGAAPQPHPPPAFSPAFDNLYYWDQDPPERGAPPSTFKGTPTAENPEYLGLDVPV

Structure (SMILES) | percentage of inhibition of HER2 phosphorylation compared with the reference compound [1] | inhibition at 1 µM [1, 2] | melting point | Percent inhibition of HER2-phosphorylation [1, 2]
FS(F)(F)(F)(F)c1ccc(C=Cc2nc(COc3ccc(CCCCn4ccnc4)cc3)co2)cc1 [example 1, 4-[4-(4-Imidazol-1-yl-butyl)-phenoxymethyl]-2-[2-(4-pentafluorosulfanyl-phenyl)-vinyl]-oxazole] | higher percentage of inhibition of phosphorylation | 87.5% |  | 
FS(F)(F)(F)(F)c1ccc(C=Cc2nc(COc3ccc(C=CCCn4ccnn4)cc3)co2)cc1 [example 12, 1-[4-(4-{2-[2-(4-Pentafluorosulfanyl-phenyl)-vinyl]-oxazol-4-ylmethoxy}-phenyl)-but-3-enyl]-1H-[1,2,3]triazole] | higher percentage of inhibition of phosphorylation | 68.8% |  | 
O=S(=O)(NCCn1ccnn1)c1ccc(OCc2coc(C=Cc3ccc(S(F)(F)(F)(F)F)cc3)n2)cc1 [example 14, N-(2-[1,2,3]Triazol-1-yl-ethyl)-4-{2-[2-(4-pentafluorosulfanyl-phenyl)-vinyl]-oxazol-4-ylmethoxy}-benzenesulfonamide] | higher percentage of inhibition of phosphorylation | 71.7% | 170 to 172 °C | 
FS(F)(F)(F)(F)c1ccc(C=Cc2nc(COc3ccc(COCCn4ccnn4)cc3)co2)cc1 [example 9, 1-[2-(4-{2-[-4-(Pentafluorosulfanyl-phenyl)-vinyl]-oxazol-4-ylmethoxy}-benzyloxy)-ethyl]-1H-[1,2,3]-triazole] | higher percentage of inhibition of phosphorylation |  |  | 52.9%
FS(F)(F)(F)(F)c1ccc(/C=C/c2nc(COc3ccc(CCCCn4ccnn4)cc3)co2)cc1 [example 4, 1-[4-(4-{2-[(E)-2-(-4-Pentafluorosulfanyl-phenyl)-vinyl]-oxazol-4-ylmethoxy}-phenyl)-butyl]-1H-[1,2,3]triazole] | higher percentage of inhibition of phosphorylation | 86.1% |  | 
FS(F)(F)(F)(F)c1ccc(C=Cc2nc(CNc3ccc(CCCCn4ccnn4)cc3)co2)cc1 [example 16, [4-(4-[1,2,3]Triazol-1-yl-butyl)-phenyl]-{2-[2-(4-pentafluorosulfanyl-phenyl)-vinyl]-oxazol-4-ylmethyl}-amine] | higher percentage of inhibition of phosphorylation | 91.9% |  | 
FS(F)(F)(F)(F)c1ccc(C=Cc2nc(COc3ccc(OCCCn4ccnn4)cc3)co2)cc1 [example 15, 1-[3-(4-{2-[2-(4-Pentafluorosulfanyl-phenyl)-vinyl]-oxazol-4-ylmethoxy}-phenoxy)-propyl]-1H-[1,2,3]triazole] | higher percentage of inhibition of phosphorylation | 97.5% |  | 
O=S(=O)(CCn1ccnn1)Cc1ccc(OCc2coc(/C=C/c3ccc(S(F)(F)(F)(F)F)cc3)n2)cc1 [example 11, 1-[2-(4-{2-[(E)-2-(4-Pentafluorosulfanyl-phenyl)-vinyl]-oxazol-4-ylmethoxy}-phenylmethanesulfonyl)-ethyl]-1H-[1,2,3]triazole] | higher percentage of inhibition of phosphorylation | 59.7% |  | 
